This is an account of results in patent US7452887B2, “Quinoline- and isoquinoline-based compounds exhibiting ATP-utilizing enzyme inhibitory activity, and compositions, and uses thereof” (Amphora Discovery Corporation, priority 2004, dated 2008).

Common to all, as to experiment: HTS ATP-utilizing enzyme assay, off-chip mobility-shift (Caliper HTS 250)
Assay type in all cases: biochemical
Common to all, as to settings: test compound 10 μM, kinase listed = active (greater than six-sigma from the mean activity of inactive compounds)

One assay addresses T1, BMX (Homo sapiens, UniProt P51813).
T1 sequence (P51813 1-675): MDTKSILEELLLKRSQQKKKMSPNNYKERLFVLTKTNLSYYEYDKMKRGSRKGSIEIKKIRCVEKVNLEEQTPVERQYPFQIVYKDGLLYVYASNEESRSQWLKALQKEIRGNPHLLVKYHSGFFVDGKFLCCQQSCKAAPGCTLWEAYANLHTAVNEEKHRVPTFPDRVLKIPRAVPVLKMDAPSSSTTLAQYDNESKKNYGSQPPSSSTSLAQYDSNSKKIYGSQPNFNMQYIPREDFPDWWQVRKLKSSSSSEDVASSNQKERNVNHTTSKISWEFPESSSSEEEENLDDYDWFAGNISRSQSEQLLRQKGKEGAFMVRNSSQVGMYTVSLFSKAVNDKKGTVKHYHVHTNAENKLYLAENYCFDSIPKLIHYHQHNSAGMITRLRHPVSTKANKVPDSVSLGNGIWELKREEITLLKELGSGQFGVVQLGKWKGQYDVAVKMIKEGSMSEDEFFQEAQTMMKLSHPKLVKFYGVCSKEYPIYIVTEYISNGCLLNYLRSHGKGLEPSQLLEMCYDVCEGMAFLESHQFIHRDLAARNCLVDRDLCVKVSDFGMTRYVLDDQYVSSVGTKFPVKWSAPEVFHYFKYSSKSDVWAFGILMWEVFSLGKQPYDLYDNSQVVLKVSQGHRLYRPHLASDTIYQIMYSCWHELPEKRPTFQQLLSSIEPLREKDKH
The procedure, abridged:
(§1)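 The ratio of peptide substrate to phosphorylated product, measured by microfluidic mobility shift, gave percent inhibition. Reactions contained enzyme, peptide substrate and compound at 10 μM in HEPES pH 7.5 buffer, ran 2.5 hrs at 20° C. to 22° C., and were quenched with EDTA.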

The target of another assay is MAPKAPK2 (Homo sapiens, UniProt P49137). In outline: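 Single-point screen of test compound at 10 μM against MAPKAPK2 with peptide substrate in HEPES pH 7.5 buffer (Triton X-100, BSA), 2.5 h at 20-22 °C. Substrate-to-phosphopeptide ratio was read by off-chip microfluidic mobility shift; EDTA and DMSO wells defined 100% and 0% controls, hits by six-sigma limits.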
Another assay concerns the target KIT (Homo sapiens, UniProt P10721). The procedure, abridged: as §1
In another assay the target is T2, FLT-3 (Homo sapiens, UniProt P36888).
T2 sequence (P36888 27-993): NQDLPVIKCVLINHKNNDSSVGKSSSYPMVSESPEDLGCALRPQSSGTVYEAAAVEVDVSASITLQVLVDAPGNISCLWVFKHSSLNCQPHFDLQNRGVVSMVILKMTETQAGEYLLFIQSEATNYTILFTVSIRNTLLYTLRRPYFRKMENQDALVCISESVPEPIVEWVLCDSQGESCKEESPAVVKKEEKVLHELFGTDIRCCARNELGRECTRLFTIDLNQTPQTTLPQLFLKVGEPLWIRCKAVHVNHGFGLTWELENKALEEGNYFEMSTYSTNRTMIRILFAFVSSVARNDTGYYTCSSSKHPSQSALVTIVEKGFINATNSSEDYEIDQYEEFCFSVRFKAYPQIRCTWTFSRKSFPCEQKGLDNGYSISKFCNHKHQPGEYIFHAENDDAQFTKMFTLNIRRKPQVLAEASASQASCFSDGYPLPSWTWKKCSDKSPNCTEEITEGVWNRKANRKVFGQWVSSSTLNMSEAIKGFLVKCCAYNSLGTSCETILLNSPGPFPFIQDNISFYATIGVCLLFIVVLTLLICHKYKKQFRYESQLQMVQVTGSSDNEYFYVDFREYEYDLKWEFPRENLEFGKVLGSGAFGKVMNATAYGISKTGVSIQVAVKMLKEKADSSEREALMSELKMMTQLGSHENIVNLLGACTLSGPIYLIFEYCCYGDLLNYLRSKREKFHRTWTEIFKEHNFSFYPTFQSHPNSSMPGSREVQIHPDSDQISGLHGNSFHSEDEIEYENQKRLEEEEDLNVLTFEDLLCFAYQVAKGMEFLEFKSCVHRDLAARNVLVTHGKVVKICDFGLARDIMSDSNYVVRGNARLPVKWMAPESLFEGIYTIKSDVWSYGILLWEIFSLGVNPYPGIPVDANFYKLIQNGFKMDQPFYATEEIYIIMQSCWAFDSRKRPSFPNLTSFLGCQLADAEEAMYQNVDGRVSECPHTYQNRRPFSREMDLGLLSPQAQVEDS
In outline:
as §1

The target of the next assay is T3, PRAK (Homo sapiens, UniProt Q8IW41).
T3 sequence (Q8IW41 1-473): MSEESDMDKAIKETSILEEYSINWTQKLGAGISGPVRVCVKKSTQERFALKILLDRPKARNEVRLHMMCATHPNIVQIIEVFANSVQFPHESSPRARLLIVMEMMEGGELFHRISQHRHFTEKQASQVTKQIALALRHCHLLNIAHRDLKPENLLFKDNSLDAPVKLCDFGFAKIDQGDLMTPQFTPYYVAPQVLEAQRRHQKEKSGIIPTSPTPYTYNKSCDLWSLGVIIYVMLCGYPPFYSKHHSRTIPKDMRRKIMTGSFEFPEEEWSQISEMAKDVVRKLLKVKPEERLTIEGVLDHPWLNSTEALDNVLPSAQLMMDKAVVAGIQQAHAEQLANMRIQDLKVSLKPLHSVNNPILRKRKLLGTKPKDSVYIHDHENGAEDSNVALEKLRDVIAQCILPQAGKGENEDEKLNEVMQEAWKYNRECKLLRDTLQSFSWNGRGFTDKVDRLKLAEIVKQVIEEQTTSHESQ
The procedure, abridged:
as §1

The next assay deals with AKT3 (Homo sapiens, UniProt Q9Y243). In outline: as §1
The target in a further assay is T4, NEK2 (Homo sapiens, UniProt P51955).
T4 sequence (P51955 1-445): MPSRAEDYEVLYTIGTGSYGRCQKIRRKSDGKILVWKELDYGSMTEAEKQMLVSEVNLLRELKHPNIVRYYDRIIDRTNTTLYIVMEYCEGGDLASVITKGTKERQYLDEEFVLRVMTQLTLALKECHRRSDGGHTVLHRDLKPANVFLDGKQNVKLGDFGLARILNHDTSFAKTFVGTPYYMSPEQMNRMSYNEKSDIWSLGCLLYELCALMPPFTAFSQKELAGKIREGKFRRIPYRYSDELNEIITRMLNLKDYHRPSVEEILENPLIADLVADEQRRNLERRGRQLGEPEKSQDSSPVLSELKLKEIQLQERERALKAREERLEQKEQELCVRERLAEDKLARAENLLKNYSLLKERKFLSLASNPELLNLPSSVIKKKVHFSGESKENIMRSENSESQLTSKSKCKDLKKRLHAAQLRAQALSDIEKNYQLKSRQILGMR
The procedure, abridged:
as §1

The target in the next assay is CHEK2 (Homo sapiens, UniProt O96017). In outline:
as §1

Chain of CHEK2 (O96017 whole entry): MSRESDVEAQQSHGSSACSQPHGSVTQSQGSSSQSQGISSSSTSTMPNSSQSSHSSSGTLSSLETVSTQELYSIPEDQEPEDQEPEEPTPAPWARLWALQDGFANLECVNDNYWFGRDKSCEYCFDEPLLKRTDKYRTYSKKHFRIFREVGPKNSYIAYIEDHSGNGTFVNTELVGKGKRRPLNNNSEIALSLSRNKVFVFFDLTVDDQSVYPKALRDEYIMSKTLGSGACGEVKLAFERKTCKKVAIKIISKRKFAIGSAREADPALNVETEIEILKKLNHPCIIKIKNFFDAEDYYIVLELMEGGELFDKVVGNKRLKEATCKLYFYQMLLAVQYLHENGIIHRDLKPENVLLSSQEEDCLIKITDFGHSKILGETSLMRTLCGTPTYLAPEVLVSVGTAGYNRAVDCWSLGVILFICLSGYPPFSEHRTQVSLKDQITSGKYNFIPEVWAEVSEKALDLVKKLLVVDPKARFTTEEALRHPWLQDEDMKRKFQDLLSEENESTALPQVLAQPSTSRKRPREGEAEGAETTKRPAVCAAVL
Chain of MAPKAPK2 (P49137 whole entry): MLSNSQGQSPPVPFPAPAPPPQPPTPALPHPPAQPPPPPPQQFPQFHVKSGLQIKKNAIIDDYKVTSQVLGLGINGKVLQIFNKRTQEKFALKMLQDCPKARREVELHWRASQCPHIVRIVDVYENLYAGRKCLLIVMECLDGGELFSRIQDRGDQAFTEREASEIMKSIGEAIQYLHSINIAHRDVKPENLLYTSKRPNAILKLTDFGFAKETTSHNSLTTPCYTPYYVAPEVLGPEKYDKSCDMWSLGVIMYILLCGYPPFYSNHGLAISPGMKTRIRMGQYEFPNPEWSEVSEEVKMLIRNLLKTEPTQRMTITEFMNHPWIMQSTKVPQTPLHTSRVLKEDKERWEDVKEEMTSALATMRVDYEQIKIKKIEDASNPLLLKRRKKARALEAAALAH
Chain of KIT (P10721 26-976): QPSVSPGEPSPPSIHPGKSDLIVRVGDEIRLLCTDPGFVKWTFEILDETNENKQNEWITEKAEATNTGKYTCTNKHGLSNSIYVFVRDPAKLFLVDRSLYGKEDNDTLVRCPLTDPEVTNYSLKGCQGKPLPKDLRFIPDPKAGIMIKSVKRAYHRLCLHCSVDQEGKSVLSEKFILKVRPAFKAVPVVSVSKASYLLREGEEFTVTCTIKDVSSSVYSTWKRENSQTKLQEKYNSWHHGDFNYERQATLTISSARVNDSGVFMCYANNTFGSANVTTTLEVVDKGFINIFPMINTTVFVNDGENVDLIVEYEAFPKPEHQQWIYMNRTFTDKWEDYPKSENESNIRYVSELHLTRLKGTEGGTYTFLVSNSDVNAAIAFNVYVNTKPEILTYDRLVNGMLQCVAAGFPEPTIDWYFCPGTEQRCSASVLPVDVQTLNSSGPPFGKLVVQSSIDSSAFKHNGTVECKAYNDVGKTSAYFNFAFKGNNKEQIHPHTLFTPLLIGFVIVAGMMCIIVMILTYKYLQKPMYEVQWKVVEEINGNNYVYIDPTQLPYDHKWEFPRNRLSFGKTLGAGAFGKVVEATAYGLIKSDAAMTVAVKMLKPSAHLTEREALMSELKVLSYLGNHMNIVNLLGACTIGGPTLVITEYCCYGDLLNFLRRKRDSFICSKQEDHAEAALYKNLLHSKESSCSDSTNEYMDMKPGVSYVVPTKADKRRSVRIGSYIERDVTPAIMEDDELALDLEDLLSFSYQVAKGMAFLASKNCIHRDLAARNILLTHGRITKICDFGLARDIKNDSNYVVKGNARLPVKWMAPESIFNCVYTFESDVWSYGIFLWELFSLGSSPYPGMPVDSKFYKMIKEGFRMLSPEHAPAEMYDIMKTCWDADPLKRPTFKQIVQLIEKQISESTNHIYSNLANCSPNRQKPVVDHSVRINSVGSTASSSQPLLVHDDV
Chain of AKT3 (Q9Y243 whole entry): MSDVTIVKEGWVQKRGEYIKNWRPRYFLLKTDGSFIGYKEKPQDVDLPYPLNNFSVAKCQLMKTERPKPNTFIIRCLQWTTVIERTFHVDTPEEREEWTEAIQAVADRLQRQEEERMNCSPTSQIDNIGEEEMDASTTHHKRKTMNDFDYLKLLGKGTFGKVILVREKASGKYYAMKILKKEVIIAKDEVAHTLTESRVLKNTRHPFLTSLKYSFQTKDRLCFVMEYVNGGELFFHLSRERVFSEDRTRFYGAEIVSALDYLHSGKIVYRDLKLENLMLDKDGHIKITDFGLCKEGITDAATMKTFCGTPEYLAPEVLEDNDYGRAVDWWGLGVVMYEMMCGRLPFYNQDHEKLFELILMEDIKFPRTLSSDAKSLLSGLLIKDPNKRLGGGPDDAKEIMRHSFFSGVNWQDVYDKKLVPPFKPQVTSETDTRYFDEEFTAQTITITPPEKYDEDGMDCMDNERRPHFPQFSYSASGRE

On to `CCC(C)N1CCN(c2ccc(Nc3ccnc4ccc(-c5ccc(C#N)cc5)cc34)cc2)CC1` (stereo not shown) [4-(4-(4-(4-sec-butylpiperazin-1-yl)phenylamino)quinolin-6-yl)benzonitrile], for which the Activity entry on BMX is listed as “BMX”; at MAPKAPK2 it was “MAPKAPK2”.

Consider `CN1CCN(c2ccc(N(C)c3ccnc4ccc(-c5ccc(C#N)cc5)cc34)cc2)CC1` [4-(4-(methyl(4-(4-methylpiperazin-1-yl)phenyl)amino)quinolin-6-yl)benzonitrile], for which the Activity entry is listed as “KIT” at KIT, “FLT-3” at FLT-3, “BMX” on BMX and “MAPKAPK2” on MAPKAPK2.

For the molecule `Cc1ccc(C)c(-c2ccc3nccc(Nc4ccc(N5CCN(C)CC5)cc4)c3c2)c1` [6-(2,5-dimethylphenyl)-N-(4-(4-methylpiperazin-1-yl)phenyl)quinolin-4-amine], the Activity result was “PRAK” on PRAK, “AKT3” at AKT3, “NEK2” at NEK2 and “MAPKAPK2” on MAPKAPK2.

As for `CCOc1cccc(-c2ccc3nccc(Nc4ccc(N5CCN(C)CC5)cc4)c3c2)c1` [6-(3-ethoxyphenyl)-N-(4-(4-methylpiperazin-1-yl)phenyl)quinolin-4-amine], the Activity entry on PRAK is on record as “PARK”; on CHEK2 it was “CHEK2”; on NEK2, “NEK2”; at MAPKAPK2, “MAPKAPK2”.

As to `CN1CCN(c2ccc(Nc3ccnc4ccc(-c5ccco5)cc34)cc2)CC1` [6-(furan-2-yl)-N-(4-(4-methylpiperazin-1-yl)phenyl)quinolin-4-amine], the Activity result at PRAK is given as “PRAK”; on CHEK2, “CHEK2”; on MAPKAPK2, “MAPKAPK2”.

Consider `CN1CCN(c2ccc(Nc3ccnc4ccc(-c5cccc(CO)c5)cc34)cc2)CC1` [(3-(4-(4-(4-methylpiperazin-1-yl)phenylamino)quinolin-6-yl)phenyl)methanol], for which the Activity result on PRAK was “PRAK”; on CHEK2, “CHEK2”; on FLT-3, “FLT3”; on MAPKAPK2 it was “MAPKAPK2”.

Regarding `COc1ccc(-c2ccc3nccc(Nc4ccc(N5CCN(C(C)C)CC5)cc4)c3c2)cc1` [N-(4-(4-isopropylpiperazin-1-yl)phenyl)-6-(4-methoxyphenyl)quinolin-4-amine], the Activity result on BMX is reported as “BMX”; on MAPKAPK2 it was “MAPKAPK2”.

Consider `CC(C)N1CCN(c2ccc(Nc3ccnc4ccc(-c5ccccc5)cc34)cc2)CC1` [N-(4-(4-isopropylpiperazin-1-yl)phenyl)-6-phenylquinolin-4-amine], for which the Activity entry at KIT is reported as “KIT”; at MAPKAPK2 it was “MAPKAPK2”.

Turning to `CN1CCN(c2ccc(Nc3ccnc4ccc(-c5cccc6cccnc56)cc34)cc2)CC1` [N-(4-(4-methylpiperazin-1-yl)phenyl)-6,8′-biquinolin-4-amine], the Activity result on KIT was “KIT”; on PRAK, “PRAK”; on BMX, “BMX”; at MAPKAPK2, “MAPKAPK2”.

Regarding `CN1CCN(c2ccc(Nc3ccnc4ccc(-c5cccc([N+](=O)[O-])c5)cc34)cc2)CC1` [N-(4-(4-methylpiperazin-1-yl)phenyl)-6-(3-nitrophenyl)quinolin-4-amine], the Activity result at PRAK is recorded as “PRAK”; at AKT3, “AKT3”.

Regarding `Cc1csc(-c2ccc3nccc(Nc4ccc(N5CCN(C)CC5)cc4)c3c2)c1` [N-(4-(4-methylpiperazin-1-yl)phenyl)-6-(4-methylthiophen-2-yl)quinolin-4-amine], the Activity entry on PRAK is reported as “PRAK”; on CHEK2, “CHEK2”; at NEK2, “NEK2”; at MAPKAPK2, “MAPKAPK2”.

In the case of `C=Cc1ccc(-c2ccc3nccc(Nc4ccc(N5CCN(C)CC5)cc4)c3c2)cc1` [N-(4-(4-methylpiperazin-1-yl)phenyl)-6-(4-vinylphenyl)quinolin-4-amine], the Activity entry was “PRAK” at PRAK, “CHEK2” at CHEK2, “NEK2” at NEK2 and “MAPKAPK2” on MAPKAPK2.

With `CN1CCN(c2ccc(Nc3ccnc4ccc(-c5cccnc5)cc34)cc2)CC1` [N-(4-(4-methylpiperazin-1-yl)phenyl)-6-(pyridin-3-yl)quinolin-4-amine], the values for the Activity result on PRAK, at AKT3 and on MAPKAPK2 were “PRAK”, “AKT3” and “MAPKAPK2”, respectively.

Take `CN1CCN(c2ccc(N(C)c3ccnc4ccc(-c5ccccc5)cc34)cc2)CC1` [N-methyl-N-(4-(4-methylpiperazin-1-yl)phenyl)-6-phenylquinolin-4-amine]: the Activity result on KIT is reported as “KIT”; at FLT-3 it was “FLT-3”; on BMX, “BMX”; on MAPKAPK2 it was “MAPKAPK2”.
